Measured values taken from patent EP2140864A2 (H. Lundbeck A/S, priority 2001, dated 2002).
Read-outs that look alike come from different tables or passages of the source.

Experiments:
NE transporter [1] = assay: Binding at native NE transporter; settings: Table 8; Ki rNE Uptk divided by Ki hGAL3
Protocol: (§1) The binding properties of the compounds of the present invention were evaluated at one or more cloned receptors or native, tissue-derived transporters, using protocols described below.
(§2) The methods to determine binding affinity at native transporters are described in the following publications: 5HT transporter and NE transporter (Owens et al., 1997), and DA transporter (Javitch et al, 1984).
(§3) Binding data were analyzed using nonlinear regression and statistical techniques available in the GraphPAD Prism package (San Diego, CA). Enzymatic assay data were derived from a standard curve of reference compound data.

DA transporter = DA transporter (Rattus norvegicus, UniProt P23977); assay: Binding at native DA transporter
Protocol: as §1, §2, §3

[2] = molecular target: T1, human α1D adrenergic receptor (Homo sapiens, UniProt P25100); assay: Radioligand binding, α1D adrenergic receptor
T1 construct: expressed in transfected cells
T1 sequence (P25100 1-572): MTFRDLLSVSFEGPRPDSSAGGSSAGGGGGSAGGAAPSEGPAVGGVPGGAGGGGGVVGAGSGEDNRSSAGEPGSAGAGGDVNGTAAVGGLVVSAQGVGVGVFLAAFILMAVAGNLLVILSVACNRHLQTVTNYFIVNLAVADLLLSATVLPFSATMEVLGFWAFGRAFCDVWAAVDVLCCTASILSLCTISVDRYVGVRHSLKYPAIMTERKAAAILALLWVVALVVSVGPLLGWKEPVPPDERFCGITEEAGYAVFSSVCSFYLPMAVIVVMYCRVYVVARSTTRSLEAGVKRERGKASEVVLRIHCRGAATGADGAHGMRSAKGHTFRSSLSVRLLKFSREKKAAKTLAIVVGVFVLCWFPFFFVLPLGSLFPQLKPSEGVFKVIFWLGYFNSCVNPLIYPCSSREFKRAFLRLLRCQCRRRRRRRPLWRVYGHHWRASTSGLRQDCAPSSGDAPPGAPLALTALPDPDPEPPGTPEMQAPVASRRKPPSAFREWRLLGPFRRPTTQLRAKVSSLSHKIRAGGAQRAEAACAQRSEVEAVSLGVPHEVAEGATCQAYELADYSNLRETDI
Source text: (§4) Other receptors: Cell membranes expressing human dopamine D1, D2, D4 and rat D3 receptors were purchased through BioSignal, Inc. (Montreal, Canada). Binding assays using the histamine H1 receptor; dopamine receptors; and α1A, α1E, and α2 adrenergic receptors may be carried out according to the procedures described in U.S. Patent No. 5,780,485, the disclosure of which is hereby incorporated by reference in its entirety into this application. Binding assays using the dopamine D5 receptor may be carried out according to the procedures described in U.S. Patent No. 5,882,855, the disclosure of which is hereby incorporated by reference in its entirety into this application. Binding assays for the human α1D adrenergic receptor may be carried out according to the procedures described in U.S. Patent No. 6,156,518, the disclosure of which is hereby incorporated by reference in its entirety into this application.
as §3

human α2B adrenoceptor = molecular target: T2, human α2B adrenoceptor (Homo sapiens, UniProt P18089); assay: Radioligand binding, α2B adrenergic receptor
T2 construct: expressed in transfected cells
T2 sequence (P18089 1-450): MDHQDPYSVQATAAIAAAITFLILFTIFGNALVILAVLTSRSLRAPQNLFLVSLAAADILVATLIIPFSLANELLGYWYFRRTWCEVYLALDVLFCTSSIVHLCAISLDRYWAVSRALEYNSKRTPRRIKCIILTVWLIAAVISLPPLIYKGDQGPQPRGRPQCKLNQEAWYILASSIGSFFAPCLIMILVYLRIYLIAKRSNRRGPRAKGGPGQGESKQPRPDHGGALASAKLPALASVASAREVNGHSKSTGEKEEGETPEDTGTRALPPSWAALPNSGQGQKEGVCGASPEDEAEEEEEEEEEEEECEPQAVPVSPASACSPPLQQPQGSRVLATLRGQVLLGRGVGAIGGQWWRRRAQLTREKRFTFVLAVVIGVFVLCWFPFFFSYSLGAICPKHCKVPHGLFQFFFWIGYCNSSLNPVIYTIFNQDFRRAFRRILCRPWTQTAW
Source text: as §4, §3

human α2C adrenoceptor = molecular target: T3, human α2C adrenoceptor (Homo sapiens, UniProt P18825); assay: Radioligand binding, α2C adrenergic receptor
T3 construct: expressed in transfected cells
T3 sequence (P18825 1-462): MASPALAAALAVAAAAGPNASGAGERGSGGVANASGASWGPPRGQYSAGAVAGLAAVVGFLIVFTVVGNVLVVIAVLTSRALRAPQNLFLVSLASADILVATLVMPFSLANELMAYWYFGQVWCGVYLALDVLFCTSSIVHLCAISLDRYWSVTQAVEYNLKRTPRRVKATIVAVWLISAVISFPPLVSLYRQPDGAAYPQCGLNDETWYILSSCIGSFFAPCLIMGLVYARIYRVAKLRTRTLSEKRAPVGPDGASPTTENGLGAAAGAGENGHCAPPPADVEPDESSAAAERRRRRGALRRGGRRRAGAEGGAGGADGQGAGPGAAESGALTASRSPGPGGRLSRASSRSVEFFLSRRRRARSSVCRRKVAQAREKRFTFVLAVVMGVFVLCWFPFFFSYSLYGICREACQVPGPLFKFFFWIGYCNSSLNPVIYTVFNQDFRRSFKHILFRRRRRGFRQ
Source text: as §4, §3

human dopamine D1 = molecular target: T4, human dopamine D1 (Homo sapiens, UniProt P21728); assay: Radioligand binding, dopamine D1 receptor
T4 construct: purchased BioSignal, Inc. (Montreal, Canada); host or cells: membranes of cells expressing the receptor
Source text: as §4, §3

rat D3 receptors = molecular target: T5, rat D3 receptors (Rattus norvegicus, UniProt P19020); assay: Radioligand binding, dopamine D3 receptor
T5 construct: purchased BioSignal, Inc. (Montreal, Canada)
Source text: as §4, §3

NE transporter [3] = molecular target: NE transporter (Rattus norvegicus, UniProt Q63380); assay: Binding at native NE transporter; settings: Table 7; native transporter, head prints r (rat); read-out: rNE Uptk Ki
Protocol: as §1, §2, §3

[4] = Table 7; native transporter, head prints r (rat); read-out: rDA Uptk Ki
[5] = Table 8; Ki rDA Uptk divided by Ki hGAL3
[6] = Table 10; Ki hα1D divided by Ki hGAL3
[7] = Table 10; Ki hα2B divided by Ki hGAL3
[8] = Table 10; Ki hα2C divided by Ki hGAL3
[9] = Table 10; Ki hD1 divided by Ki hGAL3
[10] = Table 10; Ki rD3 divided by Ki hGAL3

T5 sequence (P19020 whole entry): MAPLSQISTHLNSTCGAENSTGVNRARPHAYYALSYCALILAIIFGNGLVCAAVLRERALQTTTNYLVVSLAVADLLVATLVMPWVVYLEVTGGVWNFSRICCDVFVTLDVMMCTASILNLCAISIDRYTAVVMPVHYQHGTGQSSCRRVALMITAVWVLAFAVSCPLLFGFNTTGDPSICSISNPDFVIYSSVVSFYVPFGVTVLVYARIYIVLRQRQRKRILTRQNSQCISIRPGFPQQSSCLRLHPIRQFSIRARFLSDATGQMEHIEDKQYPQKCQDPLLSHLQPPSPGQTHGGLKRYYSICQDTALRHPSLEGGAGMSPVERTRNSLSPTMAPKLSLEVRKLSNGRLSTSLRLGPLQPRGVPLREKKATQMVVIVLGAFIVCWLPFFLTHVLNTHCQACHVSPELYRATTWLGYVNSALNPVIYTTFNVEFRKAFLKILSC
T4 sequence (P21728 whole entry): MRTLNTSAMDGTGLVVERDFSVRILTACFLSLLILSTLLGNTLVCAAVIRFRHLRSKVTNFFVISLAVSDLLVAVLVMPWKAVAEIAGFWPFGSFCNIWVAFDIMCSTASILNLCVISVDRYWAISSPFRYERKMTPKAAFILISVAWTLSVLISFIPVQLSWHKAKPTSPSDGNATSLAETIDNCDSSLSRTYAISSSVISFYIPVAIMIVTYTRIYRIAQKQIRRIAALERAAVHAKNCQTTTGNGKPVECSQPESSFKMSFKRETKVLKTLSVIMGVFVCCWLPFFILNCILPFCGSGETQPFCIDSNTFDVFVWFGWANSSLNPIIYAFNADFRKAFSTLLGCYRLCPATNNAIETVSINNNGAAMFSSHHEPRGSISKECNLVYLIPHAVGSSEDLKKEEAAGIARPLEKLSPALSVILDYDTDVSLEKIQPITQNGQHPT
Chain of DA transporter (P23977 whole entry): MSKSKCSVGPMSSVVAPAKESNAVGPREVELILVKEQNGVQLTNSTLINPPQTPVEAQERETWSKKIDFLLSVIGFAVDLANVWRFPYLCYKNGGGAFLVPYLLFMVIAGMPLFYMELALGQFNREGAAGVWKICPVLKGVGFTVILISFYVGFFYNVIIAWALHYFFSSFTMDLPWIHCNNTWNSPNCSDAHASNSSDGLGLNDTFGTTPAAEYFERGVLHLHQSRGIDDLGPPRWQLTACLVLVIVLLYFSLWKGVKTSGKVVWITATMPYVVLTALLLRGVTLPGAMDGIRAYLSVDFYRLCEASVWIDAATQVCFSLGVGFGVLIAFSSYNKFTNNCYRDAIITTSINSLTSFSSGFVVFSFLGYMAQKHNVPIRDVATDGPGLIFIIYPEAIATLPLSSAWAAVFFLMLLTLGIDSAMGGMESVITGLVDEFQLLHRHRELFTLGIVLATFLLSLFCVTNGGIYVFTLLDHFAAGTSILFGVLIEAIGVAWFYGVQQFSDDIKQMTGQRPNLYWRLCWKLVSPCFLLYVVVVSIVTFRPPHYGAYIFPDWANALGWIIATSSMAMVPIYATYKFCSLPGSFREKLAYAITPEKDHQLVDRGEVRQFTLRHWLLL
Chain of NE transporter (Rattus norvegicus, UniProt Q63380) (Q63380 1-617): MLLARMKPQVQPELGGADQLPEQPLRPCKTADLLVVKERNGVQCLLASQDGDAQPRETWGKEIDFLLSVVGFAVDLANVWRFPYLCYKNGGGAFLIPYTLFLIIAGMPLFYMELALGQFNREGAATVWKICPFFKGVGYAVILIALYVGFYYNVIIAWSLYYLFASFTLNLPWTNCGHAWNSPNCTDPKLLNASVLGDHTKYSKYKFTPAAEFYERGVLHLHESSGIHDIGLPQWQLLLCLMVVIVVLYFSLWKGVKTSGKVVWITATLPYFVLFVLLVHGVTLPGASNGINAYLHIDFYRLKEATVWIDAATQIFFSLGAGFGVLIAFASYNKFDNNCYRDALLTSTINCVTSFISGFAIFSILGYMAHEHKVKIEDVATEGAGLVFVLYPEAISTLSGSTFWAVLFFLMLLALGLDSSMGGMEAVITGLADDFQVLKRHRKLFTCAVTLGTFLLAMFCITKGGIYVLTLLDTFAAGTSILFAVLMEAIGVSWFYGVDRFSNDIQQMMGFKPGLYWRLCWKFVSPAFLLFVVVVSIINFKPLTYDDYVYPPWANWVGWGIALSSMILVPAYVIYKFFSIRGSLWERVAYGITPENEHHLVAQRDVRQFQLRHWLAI

SMILES | selectivity ratio rNE Uptk (NE transporter [1]) | Ki (DA transporter; [4]) [µM] | selectivity ratio rDA Uptk (DA transporter; [5]) | Ki ([2]; Table 9; read-out: hα1D Ki) [µM] | selectivity ratio hα1D [2, 6] | Ki (human α2B adrenoceptor; Table 9; read-out: hα2B Ki) [µM] | selectivity ratio hα2B (human α2B adrenoceptor; [7]) | Ki (human α2C adrenoceptor; Table 9; read-out: hα2C Ki) [µM] | selectivity ratio hα2C (human α2C adrenoceptor; [8]) | Ki (human dopamine D1; Table 9; read-out: hD1 Ki) [µM] | selectivity ratio hD1 (human dopamine D1; [9]) | Ki (rat D3 receptors; Table 9; read-out: rD3 Ki) [µM] | selectivity ratio rD3 (rat D3 receptors; [10]) | Ki (NE transporter [3]) [µM] | Ki (DA transporter; read-out: rDA Uptk Ki; Table 7; native transporter, head prints r (rat)) [µM] | Ki ([2]; read-out: hα1D Ki; Table 9) [µM] | Ki (human α2B adrenoceptor; read-out: hα2B Ki; Table 9) [µM] | Ki (human α2C adrenoceptor; read-out: hα2C Ki; Table 9) [µM] | Ki (human dopamine D1; read-out: hD1 Ki; Table 9) [µM] | Ki (rat D3 receptors; read-out: rD3 Ki; Table 9) [µM]
Cc1ccc(Nc2cc(N3CCCCC3)nc(N(C)CCc3c[nH]c4ccccc34)n2)cc1 [Example 11] | >100 | 5.43 | >30 | 0.264 | 3 | 10.2 | >100 | 3 | >30 | 0.079 | 0.9 | 2.14 | 24 |  |  |  |  |  |  | 
O=C1C(=Nc2ccc(Br)cc2)c2ccccc2N1c1ccccc1 [Example 98, 3-[(4-BROMOPHENYL)IMINO]-1-PHENYL-1,3-DIHYDRO-2H-INDOL-2-ONE] | >100 | 7.43 | >100 | 1.89 | >30 | > 50 | >100 | > 50 | >100 | 2.52 | >30 | 0.592 | 16 | 5.5 |  |  |  |  |  | 
O=C1C(=Nc2ccc(C(F)(F)F)cc2)c2ccccc2N1c1ccccc1 [Example 95, 1-PHENYL-3-[[4-(TRIFLUOROMETHYL)PHENYL]IMINO]-1,3-DIHYDRO-2H-INDOL-2-ONE] | >100 | 12 | >100 | 3.47 | >100 | > 50 | >100 | 48.6 | >100 | 4.39 | >100 | 0.466 | 16 | 6.1 |  |  |  |  |  | 
O=C1C(=Nc2cccc(C(F)(F)F)c2)c2ccccc2N1c1ccccc1 [Example 92, 1-PHENYL-3- [[3-(TRIFLUOROMETHYL)PHENYL]IMINO]-1,3-DIHYDRO-2H-INDOL-2-ONE] |  |  | >100 |  | >100 |  | >100 |  | >100 |  | >100 |  | >100 |  |  |  |  |  |  | 
Cc1ccc(Nc2cc(N3CCCCC3)nc(N3CCN(c4ncccc4C(F)(F)F)CC3)n2)cc1 [Example 34] | >100 | 3.9 | >100 | 1.24 | >30 | 15.5 | >100 | 8.83 | >100 | 0.29 | 13 | 9.92 | >100 |  |  |  |  |  |  | 
COC[C@@H]1[C@@H](c2ccccc2)OCCN1c1nc(Nc2ccc(C)cc2)cc(N2CCCCC2)n1 [Example 49] |  |  | 10 |  | 3 |  | >100 |  | >30 |  | 18 |  | >30 |  | 2.01 | 0.678 | 25.4 | 9.24 | 3.78 | 14
CN(CCc1c[nH]c2ccccc12)c1nc(Nc2ccc(F)c(F)c2)cc(N2CCCCC2)n1 [Example 15] | >100 | 24.5 | >100 | 0.48 | 7 | 24.5 | >100 | 8.2 | >100 | 0.344 | 5 | 8.81 | >100 |  |  |  |  |  |  | 
